The source of these data is ChEMBL document CHEMBL1134259, “Antitumor agents. Part 204: synthesis and biological evaluation of substituted 2-aryl quinazolinones” (Bioorg Med Chem Lett, 2001).

The target in one data set is Tubulin. The data set is described as follows: Inhibitory concentration required against tubulin polymerization in the antimicrotubule activity test. In kind it is functional.
For data set [1], the system named is HCT-8. The data set is described as follows: In vitro effective concentration required to reduce the number of human ileocecal carcinoma (HCT-8) after 3-day incubation. Particulars: for EC50: HCT-8, 72 h, read-out: ED50 (the source's name). In kind it is functional.
Data set [2] has as its system A549. The data set is described as follows: In vitro effective concentration required to reduce the number of human lung carcinoma (A-549) after 3-day incubation. Type of data set: functional. Particulars: A549, 72 h, read-out: ED50 (the source's name).
Data set [3] has as its system SK-MEL-2. The data set is described as follows: In vitro effective concentration required to reduce the number of human melanoma cancer (SKMEL-2) after 3-day incubation. Particulars: SK-MEL-2, 72 h, read-out: ED50 (the source's name). In kind it is functional.
In data set [4] the test system is KB. Description: In vitro effective concentration required to reduce the number of P-glycoprotein-expressing human epidermoid carcinoma cells (KB-VIN) of nasopharynx after 3-day incubation. In kind it is functional. Particulars: 72 h, read-out: ED50 (the source's name).
Data set [5] can be described thus: Therapeutic index (IC50/EC50) was determined; Did not dissolve.
For data set [6], the system named is MCF7. Description: In vitro effective concentration required to reduce the number of human breast cancer (MCF-7) after 3-day incubation. Type of data set: functional. Particulars: for EC50: 72 h, read-out: ED50 (the source's name).
Data set [7] concerns 1A9. Description: In vitro effective concentration required to reduce the number of human ovarian cancer (1A9) after 3-day incubation. Type of data set: functional. Particulars: for EC50: 1A9, 72 h, read-out: ED50 (the source's name).
The subject of data set [8] is SK-MEL-2. Description: In vitro effective concentration required to reduce the number of human melanoma cancer cells (SKMEL-2) after 3-day incubation. In kind it is functional. Particulars: SK-MEL-2, 72 h, read-out: ED50 (the source's name).
Data set [9] concerns HCT-8. The data set is described as follows: In vitro effective concentration required to reduce the number of human ileocecal carcinoma cells(HCT-8) after 3-day incubation. Type of data set: functional. Particulars: HCT-8, 72 h, read-out: ED50 (the source's name).
Data set [10] relates to MCF7. The data set is described as follows: In vitro effective concentration required to reduce the number of human breast cancer cells (MCF-7) after 3-day incubation. Particulars: MCF7, 72 h, read-out: ED50 (the source's name). In kind it is functional.
Data set [11] has as its system A549. The data set is described as follows: In vitro effective concentration required to reduce the number of human lung carcinoma cells (A-549) after 3-day incubation. Type of data set: functional. Particulars: A549, 72 h, read-out: ED50 (the source's name).
Data set [12] deals with KB. Description: In vitro effective concentration required to reduce the number of Human epidermoid carcinoma cells (KB) of nasopharynx after 3-day incubation. In kind it is functional. Particulars: 72 h, read-out: ED50 (the source's name).
The subject of data set [13] is 1A9. Description: In vitro effective concentration required to reduce the number of human ovarian cancer cells (1A9) after 3-day incubation. Type of data set: functional. Particulars: 1A9, 72 h, read-out: ED50 (the source's name).
A further data set relates to Tumor cell line. Description: Tested for inhibitory activity against growth of about half of NCI's drug screen tumor cell lines at subnanomolar concentrations. In kind it is functional. Particulars: read-out: Log TGI (converted).
In data set [14] the test system is H9. Description: Concentration required to inhibit viral replication in acutely infected H9 lymphocytes when tested for anti-HIV activity. Particulars: Homo sapiens. Type of data set: functional, cell-based.
Data set [15] deals with H9. The data set is described as follows: Concentration required to inhibit uninfected H9 cell growth when tested for anti-HIV activity. In kind it is functional, cell-based. Particulars: Homo sapiens.
Data set [16] is described as follows: Therapeutic index (IC50/EC50) was determined. Particulars: read-out: Therapeutic index.

Values after ≈ are worked out from the molar mass of the structure shown. Active and inactive are the calls of the source. No cut-off for these calls is given here.

As a reminder, the IC50 is the midpoint of a concentration-inhibition curve. A lower IC50 goes with greater potency in that assay. Turning to `COc1cc2nc(-c3cccc(F)c3)nc(O)c2cc1OC`, the IC50 against Tubulin is more than 40 µM. In addition, the EC50 with HCT-8 [1], in the data set with A549 [2], in the data set on SK-MEL-2 [3], in the data set on KB [4] and with 1A9 [7] was more than 20 µg/mL each time. In addition, in data set [5], the Therapeutic index entry is reported as “Did not dissolve”. Also, the ED50 entry with MCF7 [6] is “inactive”.
Consider `Oc1nc(-c2ccccc2F)nc2ccccc12`, for which the IC50 against Tubulin is more than 40 µM. The EC50 in the data set with SK-MEL-2 [8] is more than 20 µg/mL; in the data set on HCT-8 [9], more than 20 µg/mL; in the data set on MCF7 [10], more than 20 µg/mL; in the data set with A549 [11], more than 20 µg/mL; in the data set on KB [4], 17.5 µg/mL (≈ 72.8 µM); with KB [12] it was more than 20 µg/mL. The EC50 in the data set with 1A9 [13] was 17.1 µg/mL (≈ 71.2 µM). Further, in data set [5], the Therapeutic index entry was “Did not dissolve”.
One may read the TGI as the concentration giving total growth inhibition. As for `COc1cccc(-c2cc(O)c3cc(N4CCCC4)ccc3n2)c1`, the TGI with Tumor cell line was less than 0.001 µM.
In the case of `COc1cccc(-c2nc(O)c3ccccc3n2)c1`, at Tubulin, the midpoint of inhibition, the IC50, lay at 8.6 µM. The EC50 with HCT-8 [1], in the data set on A549 [2], with SK-MEL-2 [3], with KB [4] and with MCF7 [6] was more than 20 µg/mL each time. Moreover, the ED50 entry with 1A9 [7] was “inactive”.
With `COc1cccc(-c2nc(O)c3cc(OC)ccc3n2)c1`, the concentration for half-maximal inhibition (IC50) on Tubulin was found to be 4.9 µM. Also, the EC50 in the data set on HCT-8 [1] was more than 40 µg/mL; in the data set with A549 [2], 28.1 µg/mL (≈ 99.5 µM); with SK-MEL-2 [3] it was more than 40 µg/mL; in the data set with MCF7 [6], 37.5 µg/mL (≈ 133 µM); in the data set on KB [12], 1.98 µg/mL (≈ 7.01 µM); with 1A9 [7] it was 4.7 µg/mL (≈ 16.6 µM).
The molecule `Oc1nc(-c2ccc3ccccc3c2)nc2ccccc12` registered a half-maximal inhibitory concentration (IC50) against Tubulin of more than 40 µM. Moreover, the EC50 turned out to be 19.1 µg/mL (≈ 70.1 µM) in the data set with HCT-8 [1]; 14.4 µg/mL (≈ 52.9 µM) in the data set with A549 [2]; 13 µg/mL (≈ 47.7 µM) in the data set with SK-MEL-2 [3]; 6 µg/mL (≈ 22 µM) in the data set on KB [4]; 10.3 µg/mL (≈ 37.8 µM) in the data set with MCF7 [6]; 12.5 µg/mL (≈ 45.9 µM) in the data set on KB [12]. For the same molecule, the EC50 in the data set on 1A9 [7] was determined as 8 µg/mL (≈ 29.4 µM). In data set [5], the Therapeutic index result is “Did not dissolve”.
Consider `Oc1nc(-c2ccc(F)cc2)nc2ccccc12`, for which the EC50 is 9.18 µM with H9 [14]; 7.5 µg/mL (≈ 31.2 µM) with A549 [2]; more than 20 µg/mL in the data set on SK-MEL-2 [3]; 6.5 µg/mL (≈ 27.1 µM) in the data set with KB [4]; more than 20 µg/mL in the data set with MCF7 [6]; more than 20 µg/mL with KB [12]. Also, the EC50 in the data set on 1A9 [7] was more than 20 µg/mL. Also, the IC50 with H9 [15] was 38.8 µM; on Tubulin, more than 40 µM. Moreover, the selectivity ratio in [16] was 4.22. The ED50 result in the data set on HCT-8 [1] is “inactive”.
For `COc1cc2nc(-c3ccccc3F)nc(O)c2cc1OC`, the EC50 is 10.9 µM in the data set on H9 [14]; 17 µg/mL (≈ 56.6 µM) with HCT-8 [1]; less than 5 µg/mL in the data set with A549 [2]; less than 5 µg/mL in the data set with SK-MEL-2 [3]; less than 5 µg/mL with KB [4]; 13.1 µg/mL (≈ 43.6 µM) in the data set with MCF7 [6]. The EC50 in the data set with KB [12] is less than 5 µg/mL; in the data set with 1A9 [7] it was more than 20 µg/mL. Also, the results for the IC50 with H9 [15] and on Tubulin were 100 µM and more than 40 µM, respectively. The selectivity ratio in data set [16] was determined as 9.17.
Turning to `Oc1nc(-c2cccc(F)c2)nc2ccccc12`, the EC50 is 9.53 µM in the data set on H9 [14]; 9.8 µg/mL (≈ 40.8 µM) in the data set on A549 [2]; more than 20 µg/mL with SK-MEL-2 [3]; 8.5 µg/mL (≈ 35.4 µM) with KB [4]; more than 20 µg/mL with MCF7 [6]; more than 20 µg/mL in the data set with KB [12]. For the same molecule, the EC50 with 1A9 [7] was more than 20 µg/mL. Also, the half-inhibitory concentration (IC50) is 30.7 µM in the data set with H9 [15] and more than 40 µM against Tubulin. The selectivity ratio in [16] amounted to 3.22. Further, in the data set with HCT-8 [1], the ED50 entry was “inactive”.
On Tubulin, `COc1cc2nc(-c3ccc(F)cc3)nc(O)c2cc1OC` returned an IC50 of more than 40 µM. Further, the EC50 in the data set with HCT-8 [1] was more than 20 µg/mL; in the data set with A549 [2], more than 20 µg/mL; with SK-MEL-2 [3], more than 20 µg/mL; in the data set with KB [4] it was more than 20 µg/mL; in the data set on MCF7 [6], 19.8 µg/mL (≈ 65.9 µM); in the data set on KB [12], more than 20 µg/mL. For the same molecule, in the data set with 1A9 [7], the EC50 was 16 µg/mL (≈ 53.3 µM). The Therapeutic index result in data set [5] is “Did not dissolve”.
Take `COc1cc2nc(-c3ccc4ccccc4c3)nc(O)c2cc1OC`: the EC50 was 7.59 µM with H9 [14]; more than 10 µg/mL in the data set on HCT-8 [1]; 8 µg/mL (≈ 24.1 µM) in the data set with A549 [2]; 8.5 µg/mL (≈ 25.6 µM) with SK-MEL-2 [3]; 1.6 µg/mL (≈ 4.81 µM) with KB [4]; 6.6 µg/mL (≈ 19.9 µM) in the data set with MCF7 [6]. In addition, the EC50 turned out to be 7.3 µg/mL (≈ 22 µM) in the data set with KB [12] and 7.8 µg/mL (≈ 23.5 µM) in the data set on 1A9 [7]. Besides, the figures for the IC50 in the data set on H9 [15] and at Tubulin were 100 µM and more than 40 µM, respectively. Besides, the selectivity ratio in data set [16] amounted to 13.2.
`COc1cccc(-c2nc(O)c3cc(OC)c(OC)cc3n2)c1` registered a half-inhibitory concentration (IC50) at Tubulin of 6.5 µM. For the same molecule, the EC50 with HCT-8 [1] is more than 20 µg/mL; in the data set with A549 [2], more than 20 µg/mL; in the data set with KB [4], 19 µg/mL (≈ 60.8 µM); with MCF7 [6], 14.5 µg/mL (≈ 46.4 µM); with KB [12] it was more than 20 µg/mL; in the data set with 1A9 [7], 17.5 µg/mL (≈ 56 µM).
